Measured values published in US20040142944A1, “Compositions for nasal application” (priority 2001, published 2004).
Entries after “also recorded” stand apart in the source; their conditions may differ.

Assay: nasal administration of cGMP PDE inhibitors with added local anaesthetic
Format: in vivo

OCc1ccccc1 [benzyl alcohol]
local irritation of the nasal mucosa: led to local irritation of the nasal mucosa | ability to reduce or prevent the disadvantages occurring on nasal administration of cGMP PDE inhibitors (unpleasant nasal condition, eye-watering, increased nasal airway resistance, nasal blockage) (added to cGMP PDE inhibitor): unable to reduce or prevent the disadvantages; also recorded: unsuitable for overcoming the disadvantages
